Reference: publication PMC4268698, “Cell type-specific delivery of short interfering RNAs by dye-functionalised theranostic nanoparticles” (Nature Communications, 2014)
“Also recorded” adds a separate entry of the source.

Columns and labels:
[1] = In vivo pharmacokinetics of polymethine dyes (organ-specific clearance by liver and kidneys); set-up: species or system male Wistar rats; conditions: i.v., rats
Experimental: Catheters were placed in the jugular vein, carotid artery, bladder and bile duct of male Wistar rats (300–400 g body weight (BW)). After i.v. administration of DY-635 (13 pmol per g BW), DY-630 (13 pmol per g BW), DY-750 (13 pmol per gBW), DY-751 (13 pmol per g BW), DY-731 (13 pmol per g BW), DY-777 (14 pmol per g BW), DY-682 (13 pmol per g BW), DY-704 (17 pmol per g BW), DY-732 (13 pmol per g BW), DY-754 (17 pmol per g BW), DY-678 (14 pmol per g BW), DY-778 (14 pmol per g BW) or 6.5 μg DY625-[NP] per g BW, bile was collected every 5 min and 200 μl arterial blood taken at defined times into heparinised tubes. DY-635 fluorescence in bile and plasma was measured in a spectrofluorometer (FluoStar Optima, BMG Labtech). Results are mean±s.e.m. of three biological replicates.

liver parenchyma = test: Intravital microscopy of liver (fluorescence decay, cellular association); type: in vivo, male FVB/NRj mice; conditions: Cy5 channel, after injection
Experimental: IVM was performed using an inverted epifluorescence microscope (AxioObserverR Z1; Zeiss) as described previously.

OATP1B3 = biological target: T1, OATP1B3 (Homo sapiens, UniProt Q9NPD5); test: DY-635 interaction with hepatic basolateral transporters, transfected HEK293 cells, radio-labelled substrate uptake; type: cell-based; conditions: 10 μM DY-635 vs rifampicin 20 μM; substrate [3H]sulfobromphthalein 50 nM; transfected HEK cells
T1 construct: expressed in transfected cells; host or cells: HEK293 (pcDNA5 vector)
T1 sequence (Q9NPD5 1-702): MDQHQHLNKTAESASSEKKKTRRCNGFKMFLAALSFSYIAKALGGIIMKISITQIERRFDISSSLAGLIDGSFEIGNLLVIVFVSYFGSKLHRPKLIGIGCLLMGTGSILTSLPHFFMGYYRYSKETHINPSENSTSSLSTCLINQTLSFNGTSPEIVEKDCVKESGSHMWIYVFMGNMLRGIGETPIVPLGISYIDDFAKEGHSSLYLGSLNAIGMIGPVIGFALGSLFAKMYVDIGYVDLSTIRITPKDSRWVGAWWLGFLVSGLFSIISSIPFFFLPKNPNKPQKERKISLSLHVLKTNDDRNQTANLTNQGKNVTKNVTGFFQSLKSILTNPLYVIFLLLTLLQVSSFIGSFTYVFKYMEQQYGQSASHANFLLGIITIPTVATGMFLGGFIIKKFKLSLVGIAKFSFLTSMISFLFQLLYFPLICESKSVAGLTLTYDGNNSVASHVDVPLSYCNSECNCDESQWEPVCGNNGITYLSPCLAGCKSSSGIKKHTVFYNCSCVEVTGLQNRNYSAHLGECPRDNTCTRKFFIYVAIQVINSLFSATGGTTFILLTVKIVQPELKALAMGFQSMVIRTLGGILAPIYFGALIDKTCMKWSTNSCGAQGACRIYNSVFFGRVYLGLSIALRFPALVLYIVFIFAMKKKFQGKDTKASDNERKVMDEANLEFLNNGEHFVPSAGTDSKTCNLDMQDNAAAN
Experimental: (§1) HEK293 cells were transfected with OATP1B1 (SLCO1B1, NM_006446), OATP1B3 (SLCO1B3, NM_019844), OCT1 (SLC22A1, NM_003057.2), OAT2 (SLC22A7, NM_006672), NTCP (SLC10A1, NM_003049), NaDC3 (SLC13A3, AF154121) or the empty vector (pcDNA5).Transfected HEK293 cells were seeded at 2 × 10^5 cells per well and cultured for 3 days.

OATP1B1 = biological target: T2, OATP1B1 (Homo sapiens, UniProt Q9Y6L6); test: as above; type: cell-based; conditions: 10 μM DY-635 vs rifampicin 20 μM; substrate [3H]estrone-sulfate 30 nM; transfected HEK cells
T2 construct: expressed in transfected cells; host or cells: HEK293 (pcDNA5 vector)
T2 sequence (Q9Y6L6 1-691): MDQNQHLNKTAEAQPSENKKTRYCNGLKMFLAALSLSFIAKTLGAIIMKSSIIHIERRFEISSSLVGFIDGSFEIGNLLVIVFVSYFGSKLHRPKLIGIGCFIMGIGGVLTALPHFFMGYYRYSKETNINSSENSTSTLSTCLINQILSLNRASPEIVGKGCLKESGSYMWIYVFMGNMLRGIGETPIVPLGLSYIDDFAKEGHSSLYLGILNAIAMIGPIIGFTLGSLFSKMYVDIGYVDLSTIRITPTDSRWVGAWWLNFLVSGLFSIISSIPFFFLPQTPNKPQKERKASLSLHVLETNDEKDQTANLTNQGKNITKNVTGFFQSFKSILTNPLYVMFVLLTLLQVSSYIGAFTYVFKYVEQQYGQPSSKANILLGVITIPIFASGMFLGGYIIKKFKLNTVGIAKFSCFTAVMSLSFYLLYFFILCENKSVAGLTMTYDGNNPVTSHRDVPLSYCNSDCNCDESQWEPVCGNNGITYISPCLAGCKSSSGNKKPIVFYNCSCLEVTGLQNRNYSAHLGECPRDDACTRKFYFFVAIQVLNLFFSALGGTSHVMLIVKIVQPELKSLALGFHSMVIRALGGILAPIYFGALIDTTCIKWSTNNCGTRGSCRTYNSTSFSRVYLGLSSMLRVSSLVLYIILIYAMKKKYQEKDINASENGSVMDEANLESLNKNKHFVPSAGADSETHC
Experimental: as §1

NTCP = biological target: T3, NTCP (Homo sapiens, UniProt Q14973); test: as above; type: cell-based; conditions: 10 μM DY-635; substrate [3H]estrone-sulfate 10 μM; transfected HEK cells
T3 construct: expressed in transfected cells; host or cells: HEK293 (pcDNA5 vector)
T3 sequence (Q14973 1-349): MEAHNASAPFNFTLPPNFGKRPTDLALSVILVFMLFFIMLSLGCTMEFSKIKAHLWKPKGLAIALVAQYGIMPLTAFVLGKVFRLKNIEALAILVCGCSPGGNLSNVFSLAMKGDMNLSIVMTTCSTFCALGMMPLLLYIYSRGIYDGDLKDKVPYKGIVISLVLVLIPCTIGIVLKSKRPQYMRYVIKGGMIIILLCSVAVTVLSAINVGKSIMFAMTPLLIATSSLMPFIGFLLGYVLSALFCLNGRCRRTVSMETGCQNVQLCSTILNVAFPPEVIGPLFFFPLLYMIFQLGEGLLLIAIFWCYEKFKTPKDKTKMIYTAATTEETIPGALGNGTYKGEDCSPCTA
Experimental: as §1

[2] = test system: primary murine hepatocytes; test: Uptake of free DY-635 by primary hepatocytes, with and without cyclosporine A; type: cell-based, mouse; conditions: 37 or 4 °C
Experimental: This was then diluted 1:1 (v/v) with either 400 nM DY-635 (amino-terminated) or 10 μg NP in KHB. […] Lysates were analysed on a Tecan plate reader (Tecan) (excitation: 488±09 nm, emission 530±20 nm). […] Data were normalised to cellular protein (Bradford).

HepaRG and HUVEC cells = test: Microfluidic-assisted organoid, co-culture of HepaRG and HUVEC, nanoparticle uptake; type: cell-based, human
Experimental: HUVEC and HepaRG cells were co-cultured using a microfluidic-supported chip. […] 2.7 × 10^4 cells per cm^2 were seeded in William’s E medium supplemented with 10% foetal bovine serum, 100 U ml^−1 penicillin, 100 g ml^−1 streptomycin, 5 U ml^−1 insulin and 5 × 10^−5 M hydrocortisone-hemisuccinate and cultured for 2 weeks. For HepaRG differentiation, cells were cultured with 2% dimethylsulfoxide for two more weeks. Differentiated HepaRG cells were seeded at 4,000 cells per mm^2 at the bottom of the chip cavities beneath the membrane. 300,000 HUVEC (4,300 cells per mm^2) were seeded above the membrane and co-cultured with differentiated HepaRG cells in for 24 h before the uptake experiments. Cells were perfused with 50 μg ml^−1 NPs in Williams E medium. […] For each time point three pictures were taken and 200 region of interest (ROI) per picture were analysed.

SMILES | route of elimination (net organ-specific clearance) [1] | fluorescence decay over liver parenchyma (liver parenchyma) | affinity to OATP1B3 compared with FDA-proposed competitor (OATP1B3) | affinity to OATP1B1 compared with FDA-proposed competitor (OATP1B1) | affinity to NTCP (NTCP) | uptake of DY-635 by primary hepatocytes [2] | effect on uptake of DY-635[NP](−) (HepaRG and HUVEC cells)
CC(C)(C)c1cc(/C=C/C=C2/N(CCCCCC(=O)NCCN)c3ccc(S(=O)(=O)O)cc3C2(C)C)c2cc3c4c(c2[o+]1)CCCN4CCC3 [DY-635] | excreted preferentially via the bile; also recorded: preferential hepatobiliary clearance | exponential decay | substantially exceeded that of the Food and Drug Administration (FDA) proposed ligand for drug development, rifampicin | substantially exceeded that of the Food and Drug Administration (FDA) proposed ligand for drug development, rifampicin | moderate affinity | rapid, temperature sensitive | 
O=C1NC(=NS(=O)(=O)c2cccc3ccccc23)S/C1=C\c1ccc(Br)cc1 [Pitstop-2] |  |  |  |  |  |  | inhibition of NP uptake
